Like-named read-outs stand apart in the source and are kept apart here.
Legend:
[1] = test system: Cotton Aphid (Aphis gossvpii); test: Insecticidal test for cotton aphid in foliar spray assay; type: in vivo; conditions: for % Control at ppm against cotton aphid on squash, foliar spray, 0.781 ppm / % Control at ppm against cotton aphid on squash, foliar spray, 3.125 ppm / % Control at ppm against cotton aphid on squash, foliar spray, 12.5 ppm / % Control at ppm against cotton aphid on squash, foliar spray, 50 ppm: rundown assay; for pest or weed control at 50 ppm / pest or weed control at 200 ppm: 72 h; for pest or weed control at 50 ppm: read-out: CA 50: % control at 50 ppm against cotton aphid in foliar spray tests; for pest or weed control at 200 ppm: read-out: CA 200: % control at 200 ppm against cotton aphid in foliar spray tests
Experimental: Insecticidal Test for Cotton Aphid (Aphis gossvpii) in Foliar Spray Assay
Squash with fully expanded cotyledon leaves were trimmed to one cotyledon per plant and infested with cotton aphid (wingless adult and nymph) 1 day prior to chemical application. Each plant was examined before chemical application to ensure proper infestation (ca. 30-70 aphids per plant). Compounds (2 mg) were dissolved in 2 ml of acetone:methanol (1:1) solvent, forming stock solutions of 1000 ppm. The stock solutions were diluted 5× with 0.025% Tween 20 in H2O to obtain the highest test solution at 200 ppm. Lower test concentrations (50, 12.5, 3.13 and 0.78 ppm) were prepared by making sequential 4× dilutions from the 200 ppm solution with a diluent consisting 80 parts of 0.025% Tween 20 in H2O and 20 parts of acetone:methanol (1:1). A hand-held Devilbiss sprayer was used to apply the spray solutions until runoff to both sides of the squash cotyledon leaves. Four plants (4 replications) were used for each concentration of each compound. Reference plants (solvent check) were sprayed with the diluent only. Treated plants were held in a holding room for 3 days at approximately 23° C. and 40% RH before the number of live aphids on each plant was recorded. Insecticidal activity was measured by Corrected % Control using Abbott's correction formula and the values for the lower test concentrations are presented in Table 2: Corrected % Control=100*(X−Y)/X • where X=No. of live aphids on solvent check plants • Y=No. of live aphids on treated plants Insecticidal Test for Green Peach Aphid (Myzus persicae) in Foliar Spray Assay

[2] = test system: Green Peach Aphid (Myzus persicae); test: Insecticidal test for green peach aphid in foliar spray assay; type: in vivo; conditions: 72 h, foliar spray on cabbage seedlings, 3 days, Abbott-corrected; for pest or weed control at 200 ppm: read-out: GPA 200: % control at 200 ppm against green peach aphid in foliar spray tests; for pest or weed control at 50 ppm: read-out: GPA 50: % control at 50 ppm against green peach aphid in foliar spray tests
Experimental: Cabbage seedlings grown in 3-inch pots, with 2-3 small (3-5 cm) true leaves, were used as test substrate. The seedlings were infested with 20-50 green peach aphids (wingless adult and nymph) 2-3 days prior to chemical application. Four seedlings were used for each treatment. Compounds (2 mg) were dissolved in 2 ml of acetone:methanol (1:1) solvent, forming stock solutions of 1000 ppm. The stock solutions were diluted 5× with 0.025% Tween 20 in H2O to obtain the highest test solution at 200 ppm. A lower test concentration of 50 ppm was prepared by making a 4× dilution from the 200 ppm solution with a diluent consisting 80 parts of 0.025% Tween 20 in H2O and 20 parts of acetone: methanol (1:1). A hand-held Devilbiss sprayer was used for spraying a solution to both sides of cabbage leaves until runoff. Reference plants (solvent check) were sprayed with the diluent only. Treated plants were held in a holding room for three days at approximately 23° C. and 40% RH prior to grading. Evaluation was conducted by counting the number of live aphids per plant under a microscope. Insecticidal activity was measured by using Abbott's correction formula: Corrected % Control=100*(X−Y)/X • where X=No. of live aphids on solvent check plants • Y=No. of live aphids on treated plants The Corrected % Control values from the above assays are given in Table 2

[3] = 50 ppm, foliar spray on squash, 3 days, Abbott-corrected
[4] = 200 ppm, foliar spray on squash, 3 days, Abbott-corrected

`CS(=O)(=NC#N)C(CC1CC1)c1ccc(C(F)(F)F)nc1` (stereo not shown) [Compound 2, {1-[6-(trifluoromethyl)pyridin-3-yl]-2-(cyclopropyl)ethyl}(methyl)oxido-λ^4-sulfanylidenecyanamide] was tested, and the “% Control at ppm against cotton aphid on squash, foliar spray, 0.781 ppm” value (shortened to “% Control at ppm … 0.781 ppm”) [1] was “C (70-79)”, the “% Control at ppm against cotton aphid on squash, foliar spray, 3.125 ppm” value (shortened to “% Control at ppm … 3.125 ppm”) [1] was “A (90-100)” and the “% Control at ppm against cotton aphid on squash, foliar spray, 12.5 ppm” value (shortened to “% Control at ppm against cotton aphid … 12.5 ppm”) [1] was “A (90-100)”. For the same molecule, the “% Control at ppm against cotton aphid on squash, foliar spray, 50 ppm” value (“% Control at ppm against cotton aphid … 50 ppm” below) ([1]; 50 ppm) was “A (90-100)”, the pest or weed control at 50 ppm [1, 3] was 90 to 100% and the pest or weed control at 200 ppm [1, 4] was 90 to 100%. For the same molecule, the pest or weed control at 200 ppm [2] was 70 to 79%.

Work on `C#CCC(c1ccc(Cl)nc1)S(C)(=O)=NC#N` (stereo not shown) [Compound 14] yielded a pest or weed control at 50 ppm [1, 3] of 90 to 100% and a pest or weed control at 200 ppm [1, 4] of 90 to 100%.

Molecule `CS(=O)(=NC#N)C(CC1CC1)c1ccc(Cl)nc1` (stereo not shown) [Compound 13] has a pest or weed control at 50 ppm [1, 3] of 90 to 100% and a pest or weed control at 200 ppm [1, 4] of 90 to 100%.

Molecule `CS(=O)(=NC#N)C(C/C=C/Cl)c1ccc(Cl)nc1` (stereo not shown) [Compound 15] has a pest or weed control at 50 ppm [1, 3] of 90 to 100% and a pest or weed control at 200 ppm [1, 4] of 90 to 100%.

Molecule `COCCC(c1ccc(Cl)nc1)S(C)(=O)=NC#N` (stereo not shown) [Compound 10] has a pest or weed control at 50 ppm [1, 3] of 90 to 100%, a pest or weed control at 200 ppm [1, 4] of 90 to 100% and a pest or weed control at 200 ppm [2] of 60 to 69%.

`C#CCC(c1ccc(C(F)(F)F)nc1)S(C)(=O)=NC#N` (stereo not shown) [Compound 16] was tested, and the “% Control at ppm … 0.781 ppm” value [1] was “B (80-89)”, the “% Control at ppm … 3.125 ppm” value [1] was “A (90-100)” and the “% Control at ppm against cotton aphid … 12.5 ppm” value [1] was “A (90-100)”. The “% Control at ppm against cotton aphid … 50 ppm” value ([1]; 50 ppm) was “A (90-100)”, the pest or weed control at 50 ppm [1, 3] was 90 to 100% and the pest or weed control at 200 ppm [1, 4] was 90 to 100%. For the same molecule, the pest or weed control at 50 ppm [2] was 80 to 89% and the pest or weed control at 200 ppm [2] was 90 to 100%.

`COc1ccc(CC(c2ccc(Cl)nc2)S(C)(=O)=NC#N)cc1` (stereo not shown) [Compound 8] gave a pest or weed control at 50 ppm [1, 3] of 90 to 100% and a pest or weed control at 200 ppm [1, 4] of 90 to 100%.

For `CS(=O)(=NC#N)C(Cc1cscn1)c1ccc(Cl)nc1` (stereo not shown) [Compound 1, [1-(6-chloropyridin-3-yl)-2-(1,3-thiazol-4-yl)ethyl](methyl)oxido-λ^4-sulfanylidenecyanamide], the pest or weed control at 50 ppm ([1]; foliar) was 90 to 100% and the pest or weed control at 200 ppm ([1]; foliar) was 90 to 100%.

In the case of `CS(=O)(=NC#N)C(CCF)c1ccc(Cl)nc1` (stereo not shown) [Compound 12], the “% Control at ppm … 0.781 ppm” value [1] is reported as “A (90-100)”, the “% Control at ppm … 3.125 ppm” value [1] is reported as “A (90-100)” and the “% Control at ppm against cotton aphid … 12.5 ppm” value [1] is reported as “A (90-100)”. The “% Control at ppm against cotton aphid … 50 ppm” value ([1]; 50 ppm) was “A (90-100)”, the pest or weed control at 50 ppm [1, 3] was 90 to 100% and the pest or weed control at 200 ppm [1, 4] was 90 to 100%. For the same molecule, the pest or weed control at 50 ppm [2] was 90 to 100% and the pest or weed control at 200 ppm [2] was 90 to 100%.

`CC(C)C(c1ccc(C(F)(F)F)nc1)S(C)(=O)=NC#N` (stereo not shown) [Compound 18] was tested, and the “% Control at ppm … 0.781 ppm” value [1] was “A (90-100)”, the “% Control at ppm … 3.125 ppm” value [1] was “A (90-100)” and the “% Control at ppm against cotton aphid … 12.5 ppm” value [1] was “A (90-100)”. For the same molecule, the “% Control at ppm against cotton aphid … 50 ppm” value ([1]; 50 ppm) was “A (90-100)”, the pest or weed control at 50 ppm [1, 3] was 90 to 100% and the pest or weed control at 200 ppm [1, 4] was 90 to 100%. The pest or weed control at 50 ppm [2] was 60 to 69% and the pest or weed control at 200 ppm [2] was 90 to 100%.

In the case of `CS(=O)(=NC#N)C(Cc1ccc(Cl)nc1)c1ccc(Cl)nc1` (stereo not shown) [Compound 6], the pest or weed control at 50 ppm [1, 3] is reported as 90 to 100% and the pest or weed control at 200 ppm [1, 4] is reported as 90 to 100%.

In the case of `CC(C)C(c1ccc(Cl)nc1)S(C)(=O)=NC#N` (stereo not shown) [Compound 9], the pest or weed control at 50 ppm [1, 3] is reported as 90 to 100% and the pest or weed control at 200 ppm [1, 4] is reported as 90 to 100%.

With `CS(=O)(=NC#N)[C@@H]1CCC[C@@H]1c1ccc(Cl)nc1` (stereo partly drawn) [Compound 3, cis-[2-(6-chloropyridin-3-yl)cyclopentyl](methyl)-oxido-λ^4-sulfanylidenecyanamide] the pest or weed control at 200 ppm [1, 4] was 60 to 69% and the pest or weed control at 200 ppm [2] was 60 to 69%.

With `CS(=O)(=NC#N)C1CCC(c2ccc(Cl)nc2)C1` (stereo not drawn) [Compound 4, cis and trans-[3-(6-chloropyridin-3-yl)cyclopentyl]-(methyl)oxido-λ^4-sulfanylidenecyanamide] the pest or weed control at 50 ppm [1, 3] was 70 to 79%, the pest or weed control at 200 ppm [1, 4] was 90 to 100% and the pest or weed control at 200 ppm [2] was 80 to 89%.

For `CS(=O)(=NC#N)C(C/C=C/Cl)c1ccc(C(F)(F)F)nc1` (stereo not shown) [Compound 17], the “% Control at ppm … 0.781 ppm” value [1] was “D (60-69)”, the “% Control at ppm … 3.125 ppm” value [1] was “B (80-89)” and the “% Control at ppm against cotton aphid … 12.5 ppm” value [1] was “A (90-100)”. For the same molecule, the “% Control at ppm against cotton aphid … 50 ppm” value ([1]; 50 ppm) was “A (90-100)”, the pest or weed control at 50 ppm [1, 3] was 90 to 100% and the pest or weed control at 200 ppm [1, 4] was 90 to 100%. For the same molecule, the pest or weed control at 50 ppm [2] was 70 to 79% and the pest or weed control at 200 ppm [2] was 90 to 100%.

In the case of `N#CN=S1(=O)CCC(c2ccc(C(F)(F)F)nc2)C1` (stereo not shown) [Compound 5, 1-oxido-3-[6-(trifluoromethyl)pyridin-3-yl]tetrahydro-1H-1λ^4-thien-1-ylidenecyanamide], the “% Control at ppm … 0.781 ppm” value [1] is reported as “F (Less than 50)”, the “% Control at ppm … 3.125 ppm” value [1] is reported as “C (70-79)” and the “% Control at ppm against cotton aphid … 12.5 ppm” value [1] is reported as “A (90-100)”. The “% Control at ppm against cotton aphid … 50 ppm” value ([1]; 50 ppm) was “A (90-100)”, the pest or weed control at 50 ppm [1, 3] was 90 to 100% and the pest or weed control at 200 ppm [1, 4] was 90 to 100%. For the same molecule, the pest or weed control at 50 ppm [2] was 50 to 59% and the pest or weed control at 200 ppm [2] was 80 to 89%.

Work on `CS(=O)(=NC#N)C(Cc1ccc(Cl)cc1)c1ccc(Cl)nc1` (stereo not shown) [Compound 7] yielded a pest or weed control at 50 ppm [1, 3] of 90 to 100% and a pest or weed control at 200 ppm [1, 4] of 90 to 100%.

With `COCC(COC)(c1ccc(Cl)nc1)S(C)(=O)=NC#N` (stereo not shown) [Compound 11] the pest or weed control at 50 ppm [1, 3] was 90 to 100% and the pest or weed control at 200 ppm [1, 4] was 90 to 100%.
